According to US20130165475A1, “DEUTERIUM-ENRICHED HETEROCYCLIC COMPOUNDS AS KINASE INHIBITORS” (ASCEPION PHARMACEUTICALS, INC., priority 2010, published 2013):

Experiments:
c-Met = target: T1, c-Met (Homo sapiens, UniProt P08581); test: c-Met cell-based assay (ELISA, phosphor-/total c-Met in transfected CHO cells, HGF stimulated); details: compound at 100 nM; CHO cells transfected with full length c-Met; HGF 100 ng/mL
T1 construct: expressed in transfected cells; host or cells: CHO cells
Excerpt: A standard cell-based assay for c-Met kinase activity can be used to test or screen the compounds of this invention and to identify c-Met antagonists. In this example, ELISA kits (R&D Systems, Inc., Minneapolis, Minn. 55413, USA) were used.
(§1) The activity of c-Met in cells depended on its autophosphorylation level by it specific growth factor-Hepatocyte growth factor (HGF). In order to induce the cell to produce c-Met, full length of c-Met sequence was cloned into PC-DNA3.1 vector, the plasmid was then transfected into CHO cells. After 48 hours, the expression of c-Met in transfected CHO cells was confirmed by regular western blotting.
(§2) A compound to be tested was first dissolved in DMSO to a concentration of 10 mM and stored at −20° C. One day before the screening, CHO cells transfected with full length c-Met plasmid were grown in DMEM medium without the presence of serum. On the day of screening procedure, the compounds with various concentration in DMSO (from 0.5 nM to 500 nM) were added into DMEM medium, two hours later, Hepatocyte growth factor (HGF) was added into the medium at the concentration of 100 ng/mL to stimulate the production of phosphor-c-Met. Cell lysate from approximately 5×10^5 transfected CHO cells were reacted with anti-phosphor c-Met or anti-total c-Met antibody in 96 well plates, in the presence of detection antibody. The phosphor-c-Met or total c-Met were detected with Streptavidin-HRP (R&D Systems), followed by chemiluminescent detection. The level of c-Met kinase activity was quantified as the ratio between the amount of phosphor- and that of total c-Met proteins.

PDGFRβ = target: T2, PDGFRβ (Homo sapiens, UniProt P09619); test: PDGFRβ cell-based assay (ELISA, phosphor-/total PDGFRβ in transfected CHO cells); details: compound at 100 nM; CHO cells transfected with full length PDGFRβ; FBS stimulation; read-out: % PDGFRβ kinase activity remains
T2 construct: expressed in transfected cells; host or cells: CHO cells
Excerpt: A standard cell-based assay for PDGFRβ kinase activity can be used to test or screen the compounds of this invention and to identify PDGFRβ antagonists. In this example, ELISA kits (R&D Systems, Inc., Minneapolis, Minn. 55413, USA) were used.
as §1, with “PDGFRβ” for “c-Met”, “various factors including” for “it specific”, “factors.” for “factor-Hepatocyte growth factor (HGF).”, “PDGFRβ,” for “c-Met,”
as §2, with “PDGFRβ” for “c-Met”, “20% of FBS (Fetal Bovine Serum)” for “Hepatocyte growth factor (HGF)”, “medium” for “medium at the concentration of 100 ng/mL”, “phosphor-PDGFRβ.” for “phosphor-c-Met.”, “phosphor-PDGFRβ” for “phosphor-c-Met”

[1] = Oral bioavailability study, Group 2 (rats); format: in vivo, male SD rat
Description: Oral pharmacokinetic studies on rats were performed on Example 2, this compound was dissolved in PEG-400 (2:1 mixture of PEG400 and 0.01N HCL (v/v)) and administered orally to male SD rat at a dose of 50 mg/kg. Rat blood was obtained from tail vein at 0.25, 0.5, 1, 2, 3, 4, 6, 8, 12, and 24 hours after administration. The blood concentration of Example 2 was determined using appropriate internal standards and reverse phase HPLC with UV detection. Control blood samples were also run to identify compound-specific peaks. The oral bioavailability was determined by comparing the dose corrected areas under plasma-concentration time curve (AUC) to infinity for Example 2, given orally and intravenously in rats.

[2] = Oral bioavailability study, Group 1 (mice); format: in vivo, male ICR mice
Description: Oral pharmacokinetic studies were performed on Example 2. Specifically, this compound was dissolved in PEG-400 (2:1 mixture of PEG400 and 0.01N HCL (v/v)) and administered orally to male ICR mice at a dose of 50 mg/kg. Mice blood was obtained via eyeball enucleation at 0.25, 0.5, 1, 2, 3, 4, 6, 8, 12 and 24 hours after administration. The concentration of Example 2 in blood was determined using appropriate internal standards and reverse phase HPLC with UV detection.
Control blood samples were also used to identify compound-specific peaks. The oral bioavailability was determined by comparing the dose corrected areas under plasma-concentration time curve (AUC) to infinity for Example 2, given orally and intravenously in mice.

[3] = system: HT-29 human colon cancer cells; test: In vivo anti-tumor efficacy, HT-29 xenograft; details: HT-29 s.c. in nu/nu Balb/c athymic mice, 50 mg/kg once per day oral gavage
Description: Female (nu/nu) Balb/c athymic mice at 4-6 weeks of age were injected subcutaneously (s.c.) with MDA-MB-231 human breast cancer cells, A549 human non-small cell lung cancer cells, BEL7401 human liver cancer cells, HT-29 human colon cancer cells, or MKN-45 human gastric cancer cells (ATCC, 5×10^6 cells suspended in 100 μl DMEM medium). Treatment was initiated after the tumor mass grown from subcutaneous implanted tumor cells reaches a median volume of 200-400 mm^3. Mice were randomized into groups with three in each group such that the median tumor volume is nearly equal among all groups. […] Tumor volumes were assessed at least twice weekly by caliper measurement from the start of treatment. Tumor volume was calculated using the formula ½×L×W^2 (L: length of tumor's long axis, W: length of tumor's short axis). […] The efficacy of compounds in reducing tumor growth was assessed by the index Tumor Growth Inhibition (TGI). TGI for a given treatment period was calculated using the group mean tumor volumes according to the formula: TGI=100×(Vvehicle—group−VTreatment—group)÷VVehicle—group wherein VVehicle—group representing the mean tumor volume for the group treated with vehicle and VTreatment—group representing the mean tumor volume of the group treated with a compound.

T2 sequence (P09619 33-1106): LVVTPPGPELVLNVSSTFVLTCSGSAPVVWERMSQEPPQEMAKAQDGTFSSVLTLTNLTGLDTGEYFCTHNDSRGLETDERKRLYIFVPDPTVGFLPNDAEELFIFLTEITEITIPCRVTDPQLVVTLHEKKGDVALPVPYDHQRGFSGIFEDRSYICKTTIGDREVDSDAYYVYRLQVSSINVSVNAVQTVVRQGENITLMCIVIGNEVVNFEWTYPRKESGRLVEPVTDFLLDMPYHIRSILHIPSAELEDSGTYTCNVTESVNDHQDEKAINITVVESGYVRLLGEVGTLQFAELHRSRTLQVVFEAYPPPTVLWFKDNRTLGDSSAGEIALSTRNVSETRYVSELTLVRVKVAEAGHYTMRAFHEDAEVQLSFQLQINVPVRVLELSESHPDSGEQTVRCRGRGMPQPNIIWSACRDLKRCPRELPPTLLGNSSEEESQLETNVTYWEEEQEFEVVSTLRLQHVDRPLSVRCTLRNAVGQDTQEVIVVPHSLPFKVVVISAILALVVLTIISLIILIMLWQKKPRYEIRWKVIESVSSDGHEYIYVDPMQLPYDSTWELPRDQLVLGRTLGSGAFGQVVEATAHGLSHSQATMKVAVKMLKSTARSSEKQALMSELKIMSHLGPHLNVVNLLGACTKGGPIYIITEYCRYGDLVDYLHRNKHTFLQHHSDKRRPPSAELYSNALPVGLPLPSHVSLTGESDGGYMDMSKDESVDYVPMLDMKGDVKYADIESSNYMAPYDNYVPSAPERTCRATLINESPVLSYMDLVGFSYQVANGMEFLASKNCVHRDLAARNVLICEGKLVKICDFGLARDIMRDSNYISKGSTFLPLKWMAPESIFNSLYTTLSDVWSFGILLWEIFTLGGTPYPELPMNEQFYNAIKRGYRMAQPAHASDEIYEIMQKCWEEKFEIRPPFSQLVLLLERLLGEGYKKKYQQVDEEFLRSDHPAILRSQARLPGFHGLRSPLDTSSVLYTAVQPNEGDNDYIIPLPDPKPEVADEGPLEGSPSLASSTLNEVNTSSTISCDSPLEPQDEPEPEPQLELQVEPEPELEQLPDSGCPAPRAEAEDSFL
T1 sequence (P08581 25-1390): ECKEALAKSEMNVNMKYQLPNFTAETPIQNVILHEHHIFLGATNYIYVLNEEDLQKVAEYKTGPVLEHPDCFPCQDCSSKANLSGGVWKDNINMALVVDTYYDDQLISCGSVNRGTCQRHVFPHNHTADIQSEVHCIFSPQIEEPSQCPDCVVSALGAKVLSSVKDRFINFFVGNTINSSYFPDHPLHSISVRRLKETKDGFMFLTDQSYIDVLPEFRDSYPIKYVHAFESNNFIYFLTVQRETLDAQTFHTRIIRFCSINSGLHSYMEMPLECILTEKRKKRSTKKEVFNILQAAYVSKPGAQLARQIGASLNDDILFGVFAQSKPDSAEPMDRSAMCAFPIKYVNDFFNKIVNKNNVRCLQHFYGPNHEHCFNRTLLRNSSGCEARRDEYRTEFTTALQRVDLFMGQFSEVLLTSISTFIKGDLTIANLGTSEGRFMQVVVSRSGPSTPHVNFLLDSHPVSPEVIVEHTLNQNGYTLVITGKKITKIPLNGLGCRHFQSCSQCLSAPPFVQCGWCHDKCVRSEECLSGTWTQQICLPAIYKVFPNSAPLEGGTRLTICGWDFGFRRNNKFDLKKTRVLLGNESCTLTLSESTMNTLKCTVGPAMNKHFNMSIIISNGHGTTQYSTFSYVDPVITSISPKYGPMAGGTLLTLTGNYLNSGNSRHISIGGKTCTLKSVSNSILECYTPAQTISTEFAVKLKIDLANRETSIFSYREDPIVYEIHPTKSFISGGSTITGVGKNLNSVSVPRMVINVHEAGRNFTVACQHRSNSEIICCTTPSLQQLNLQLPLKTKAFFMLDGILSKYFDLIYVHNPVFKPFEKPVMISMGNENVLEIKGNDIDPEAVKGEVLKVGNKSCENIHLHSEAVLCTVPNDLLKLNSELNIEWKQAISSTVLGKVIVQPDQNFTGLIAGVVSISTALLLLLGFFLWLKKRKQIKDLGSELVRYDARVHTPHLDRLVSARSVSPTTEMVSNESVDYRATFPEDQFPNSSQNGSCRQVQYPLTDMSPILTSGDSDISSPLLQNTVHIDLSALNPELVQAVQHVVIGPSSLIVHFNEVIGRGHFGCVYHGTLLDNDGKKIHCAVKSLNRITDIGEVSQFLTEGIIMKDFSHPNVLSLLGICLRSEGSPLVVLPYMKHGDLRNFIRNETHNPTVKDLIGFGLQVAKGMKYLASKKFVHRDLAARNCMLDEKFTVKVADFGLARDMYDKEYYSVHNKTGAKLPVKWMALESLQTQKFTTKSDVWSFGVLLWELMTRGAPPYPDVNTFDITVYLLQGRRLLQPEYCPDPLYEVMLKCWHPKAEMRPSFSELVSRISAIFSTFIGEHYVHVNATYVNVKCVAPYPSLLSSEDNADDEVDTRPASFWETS

## Cl.[2H]C([2H])(c1ccnc(N)c1)n1ccc2c(NC(=O)Nc3cc(Cl)ccc3OC)cccc21 [Example 2, 1-[1-[(2-amino-4-pyridyl)-dideuteriomethyl]indol-4-yl]-3-(5-chloro-2-methoxyphenyl)urea hydrochloride]
c-Met
  % C-Met kinase activity remains: B (the percentage is greater or equal to 70%)
PDGFRβ
  remaining activity at 0.1 µM: < 70%
[1]; plasma, male SD rat, 50 mg/kg oral, AUC to infinity oral vs intravenous
  bioavailability: > 67%
[1]; rat study, 0.25 hours after 50 mg/kg oral dosing
  amount detected in blood after oral dosing: substantial amounts
[1]; whole blood, male SD rat, 50 mg/kg oral
  half-life: 2 to 3 h
[2]; mice, 0.25 hour after 50 mg/kg oral dosing
  amount detected in blood after oral dosing: substantial amounts
[2]; mouse, plasma, male ICR mice, 50 mg/kg oral, AUC to infinity oral vs intravenous
  bioavailability: > 88%
[2]; mouse, whole blood, male ICR mice, 50 mg/kg oral
  half-life: 2.3 to 3.5 h
[3]
  Tumor Growth Inhibition (TGI): A (the TGI is greater or equal to 50%)

## [2H]C(c1c[nH]c2ncccc12)n1ccc2c(NC(=O)Nc3cccc(C)c3)cccc21 (centres unmarked) [Example 22, 1-[1-[deuterio(1H-pyrrolo[2,3-b]pyridin-3-yl)methyl]indol-4-yl]-3-(m-tolyl)urea]
c-Met
  % C-Met kinase activity remains: A (the percentage of kinase activity remains is below 70%)
PDGFRβ
  remaining activity at 0.1 µM: < 70%
